Source: PubChem BioAssay (NCI)
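Abbreviation: GI50, concentration required for 50% inhibition of growth. TGI denotes the concentration required for complete inhibition of growth.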

Tests used:
Experiment in all cases: NCI anticancer screen, dose series, 384-well format
DU-145 prostate = system: DU-145 prostate
OVCAR-4 ovarian = system: OVCAR-4 ovarian
A498 renal = system: A498 renal
M14 melanoma = system: M14 melanoma
SW-620 colon = system: SW-620 colon
MOLT-4 leukemia = system: MOLT-4 leukemia
MDA-MB-231 breast = system: MDA-MB-231 breast
UO-31 renal = system: UO-31 renal
K-562 leukemia = system: K-562 leukemia
A549 NSCLC = system: A549 NSCLC
SN12C renal = system: SN12C renal
HCT-116 colon = system: HCT-116 colon
MALME-3M melanoma = system: MALME-3M melanoma
UACC-257 melanoma = system: UACC-257 melanoma
NCI-H226 lung = system: NCI-H226 lung
UACC-62 melanoma = system: UACC-62 melanoma
SF-539 CNS = system: SF-539 CNS
HCT-15 colon = system: HCT-15 colon
ACHN renal = system: ACHN renal
CAKI-1 renal = system: CAKI-1 renal
NCI/ADR-RES ovarian = system: NCI/ADR-RES ovarian
T-47D breast = system: T-47D breast
SK-MEL-28 melanoma = system: SK-MEL-28 melanoma
NCI-H322M lung = system: NCI-H322M lung
HT29 colon = system: HT29 colon
CCRF-CEM leukemia = system: CCRF-CEM leukemia
SR leukemia = system: SR leukemia
RXF 393 renal = system: RXF 393 renal
NCI-H522 lung = system: NCI-H522 lung

With `COc1cccc2c1C(=N)c1c(O)c3c(c(O)c1C2=O)C[C@@](O)(C(C)=O)C[C@@H]3O[C@H]1C[C@H](N)[C@H](O)[C@H](C)O1` the GI50 (DU-145 prostate) was 108 nM, the TGI (DU-145 prostate) was 399 nM and the GI50 (OVCAR-4 ovarian) was 387 nM. For the same molecule, the TGI (OVCAR-4 ovarian) was 1370 nM, the GI50 (A498 renal) was 91.9 nM and the TGI (A498 renal) was 1070 nM. The GI50 (M14 melanoma) was 73.6 nM, the TGI (M14 melanoma) was 445 nM and the GI50 (SW-620 colon) was 42.8 nM. It also gave a TGI (SW-620 colon) of 281 nM, a GI50 (MOLT-4 leukemia) of less than 10 nM and a TGI (MOLT-4 leukemia) of less than 10 nM. It also gave a GI50 (MDA-MB-231 breast) of 181 nM, a TGI (MDA-MB-231 breast) of 379 nM and a GI50 (UO-31 renal) of 707 nM. The TGI (UO-31 renal) was 2090 nM, the GI50 (K-562 leukemia) was 90.4 nM and the TGI (K-562 leukemia) was 452 nM. The GI50 (A549 NSCLC) was 76.1 nM, the TGI (A549 NSCLC) was 334 nM and the GI50 (SN12C renal) was 48.7 nM. For the same molecule, the TGI (SN12C renal) was 185 nM, the GI50 (HCT-116 colon) was 46.7 nM and the TGI (HCT-116 colon) was 1010 nM. For the same molecule, the GI50 (MALME-3M melanoma) was 220 nM, the TGI (MALME-3M melanoma) was 953 nM and the GI50 (UACC-257 melanoma) was 455 nM. The TGI (UACC-257 melanoma) was 1820 nM, the GI50 (NCI-H226 lung) was 124 nM and the TGI (NCI-H226 lung) was 318 nM. The GI50 (UACC-62 melanoma) was 71.6 nM, the TGI (UACC-62 melanoma) was 466 nM and the GI50 (SF-539 CNS) was 36.6 nM. For the same molecule, the TGI (SF-539 CNS) was 119 nM, the GI50 (HCT-15 colon) was 417 nM and the TGI (HCT-15 colon) was 1560 nM. The GI50 (ACHN renal) was 120 nM, the TGI (ACHN renal) was 567 nM and the GI50 (CAKI-1 renal) was 90.9 nM. The TGI (CAKI-1 renal) was 668 nM, the GI50 (NCI/ADR-RES ovarian) was 7530 nM and the TGI (NCI/ADR-RES ovarian) was 25400 nM. For the same molecule, the GI50 (T-47D breast) was 61.1 nM, the TGI (T-47D breast) was 451 nM and the GI50 (SK-MEL-28 melanoma) was 131 nM. The TGI (SK-MEL-28 melanoma) was 468 nM, the GI50 (NCI-H322M lung) was 637 nM and the TGI (NCI-H322M lung) was 2080 nM. For the same molecule, the GI50 (HT29 colon) was 119 nM, the TGI (HT29 colon) was 250 nM and the GI50 (CCRF-CEM leukemia) was 10.3 nM. For the same molecule, the TGI (CCRF-CEM leukemia) was 22.8 nM, the GI50 (SR leukemia) was less than 10 nM and the TGI (SR leukemia) was less than 10 nM. The GI50 (RXF 393 renal) was 41.7 nM, the TGI (RXF 393 renal) was 147 nM and the GI50 (NCI-H522 lung) was 55.3 nM.
